Results published in PubChem BioAssay (NCI).
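Five compound concentrations were applied to cells in 96-well plates for 48 hours; endpoints were derived by simple linear interpolation of the resulting dose-response curve. TGI is the concentration that stops growth completely.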

What was measured:
Test in all cases: growth of human tumour cells (NCI), 48 h
[1] = system: MOLT-4 leukemia
[2] = system: SK-MEL-2 melanoma
[3] = system: SF-268 CNS
[4] = system: NCI-H460 lung
[5] = system: ACHN renal
[6] = system: HT29 colon
[7] = system: SW-620 colon
[8] = system: PC-3 prostate
[9] = system: SNB-75 CNS
[10] = system: TK-10 renal
[11] = system: HL-60(TB) leukemia
[12] = system: SF-295 CNS
[13] = system: HS 578T breast
[14] = system: HCT-116 colon
[15] = system: A549 NSCLC
[16] = system: KM12 colon
[17] = system: HOP-62 NSCLC
[18] = system: NCI-H522 lung
[19] = system: HCC-2998 colon
[20] = system: T-47D breast
[21] = system: HCT-15 colon
[22] = system: SK-MEL-28 melanoma
[23] = system: NCI/ADR-RES ovarian
[24] = system: M14 melanoma
[25] = system: RPMI-8226 leukemia
[26] = system: MCF7 breast
[27] = system: RXF 393 renal
[28] = system: IGROV1 ovarian
[29] = system: NCI-H23 lung
[30] = system: SN12C renal
[31] = system: K-562 leukemia
[32] = system: UO-31 renal
[33] = system: CCRF-CEM leukemia
[34] = system: UACC-62 melanoma
[35] = system: MDA-MB-231 breast
[36] = system: 786-0 renal
[37] = system: SK-MEL-5 melanoma
[38] = system: DU-145 prostate
[39] = system: SR leukemia
[40] = system: MDA-N
[41] = system: EKVX NSCLC
[42] = system: UACC-257 melanoma
[43] = system: SK-OV-3 ovarian
[44] = system: OVCAR-4 ovarian
[45] = system: LOX IMVI melanoma
[46] = system: U251 CNS
[47] = system: CAKI-1 renal
[48] = system: NCI-H226 lung
[49] = system: COLO 205 colon
[50] = system: SNB-19 CNS
[51] = system: OVCAR-3 ovarian
[52] = system: MDA-MB-435
[53] = system: OVCAR-8 ovarian
[54] = system: SF-539 CNS
[55] = system: OVCAR-5 ovarian
[56] = system: HOP-92 NSCLC

Measured: TGI

OC(c1cc2ccccc2o1)c1cc2ccccc2s1 (stereo unspecified)
> 10 µM: all assays above
